Reference: PubChem BioAssay (NCI)
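Protocol summary: plate cells (96-well), add compound at 5 concentrations, incubate 48 h, interpolate endpoints linearly. The concentration for full growth arrest is given as TGI.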

Assays:
Test in all cases: growth of human tumour cells (NCI), 48 h
HOP-92 NSCLC = tested on: HOP-92 NSCLC
U251 CNS = tested on: U251 CNS
SW-620 colon = tested on: SW-620 colon
IGROV1 ovarian = tested on: IGROV1 ovarian
HL-60(TB) leukemia = tested on: HL-60(TB) leukemia
MALME-3M melanoma = tested on: MALME-3M melanoma
SR leukemia = tested on: SR leukemia
OVCAR-4 ovarian = tested on: OVCAR-4 ovarian
786-0 renal = tested on: 786-0 renal
NCI/ADR-RES ovarian = tested on: NCI/ADR-RES ovarian
HOP-62 NSCLC = tested on: HOP-62 NSCLC
PC-3 prostate = tested on: PC-3 prostate
HS 578T breast = tested on: HS 578T breast
MOLT-4 leukemia = tested on: MOLT-4 leukemia
SK-MEL-5 melanoma = tested on: SK-MEL-5 melanoma
DU-145 prostate = tested on: DU-145 prostate
RXF 393 renal = tested on: RXF 393 renal
A498 renal = tested on: A498 renal
NCI-H460 lung = tested on: NCI-H460 lung
NCI-H522 lung = tested on: NCI-H522 lung
LOX IMVI melanoma = tested on: LOX IMVI melanoma
EKVX NSCLC = tested on: EKVX NSCLC
HCC-2998 colon = tested on: HCC-2998 colon
SK-OV-3 ovarian = tested on: SK-OV-3 ovarian
OVCAR-5 ovarian = tested on: OVCAR-5 ovarian
MDA-N = tested on: MDA-N
A549 NSCLC = tested on: A549 NSCLC
COLO 205 colon = tested on: COLO 205 colon
KM12 colon = tested on: KM12 colon
SF-268 CNS = tested on: SF-268 CNS
SK-MEL-28 melanoma = tested on: SK-MEL-28 melanoma
SNB-19 CNS = tested on: SNB-19 CNS
SK-MEL-2 melanoma = tested on: SK-MEL-2 melanoma
UACC-62 melanoma = tested on: UACC-62 melanoma
HCT-116 colon = tested on: HCT-116 colon
SF-539 CNS = tested on: SF-539 CNS
HT29 colon = tested on: HT29 colon
SNB-75 CNS = tested on: SNB-75 CNS
CAKI-1 renal = tested on: CAKI-1 renal
UACC-257 melanoma = tested on: UACC-257 melanoma
HCT-15 colon = tested on: HCT-15 colon
MDA-MB-231 breast = tested on: MDA-MB-231 breast
RPMI-8226 leukemia = tested on: RPMI-8226 leukemia
OVCAR-8 ovarian = tested on: OVCAR-8 ovarian
TK-10 renal = tested on: TK-10 renal
NCI-H226 lung = tested on: NCI-H226 lung
T-47D breast = tested on: T-47D breast
CCRF-CEM leukemia = tested on: CCRF-CEM leukemia
MDA-MB-435 = tested on: MDA-MB-435
UO-31 renal = tested on: UO-31 renal
ACHN renal = tested on: ACHN renal
SF-295 CNS = tested on: SF-295 CNS
NCI-H23 lung = tested on: NCI-H23 lung
SN12C renal = tested on: SN12C renal
K-562 leukemia = tested on: K-562 leukemia
M14 melanoma = tested on: M14 melanoma
OVCAR-3 ovarian = tested on: OVCAR-3 ovarian
BT-549 breast = tested on: BT-549 breast
MCF7 breast = tested on: MCF7 breast

Cn1c(=Nc2ccccc2[N+](=O)[O-])sc2ccccc21
TGI (HOP-92 NSCLC): 61.7 µM
TGI (U251 CNS): > 100 µM
TGI (SW-620 colon): > 100 µM
TGI (IGROV1 ovarian): > 100 µM
TGI (HL-60(TB) leukemia): > 100 µM
TGI (MALME-3M melanoma): > 100 µM
TGI (SR leukemia): > 100 µM
TGI (OVCAR-4 ovarian): 86.9 µM
TGI (786-0 renal): > 100 µM
TGI (NCI/ADR-RES ovarian): > 100 µM
TGI (HOP-62 NSCLC): 48.3 µM
TGI (PC-3 prostate): > 100 µM
TGI (HS 578T breast): > 100 µM
TGI (MOLT-4 leukemia): > 100 µM
TGI (SK-MEL-5 melanoma): > 100 µM
TGI (DU-145 prostate): > 100 µM
TGI (RXF 393 renal): > 100 µM
TGI (A498 renal): > 100 µM
TGI (NCI-H460 lung): > 100 µM
TGI (NCI-H522 lung): > 100 µM
TGI (LOX IMVI melanoma): > 100 µM
TGI (EKVX NSCLC): > 100 µM
TGI (HCC-2998 colon): > 100 µM
TGI (SK-OV-3 ovarian): 97.2 µM
TGI (OVCAR-5 ovarian): > 100 µM
TGI (MDA-N): > 100 µM
TGI (A549 NSCLC): > 100 µM
TGI (COLO 205 colon): > 100 µM
TGI (KM12 colon): 15.5 µM
TGI (SF-268 CNS): > 100 µM
TGI (SK-MEL-28 melanoma): > 100 µM
TGI (SNB-19 CNS): > 100 µM
TGI (SK-MEL-2 melanoma): > 100 µM
TGI (UACC-62 melanoma): > 100 µM
TGI (HCT-116 colon): > 100 µM
TGI (SF-539 CNS): > 100 µM
TGI (HT29 colon): > 100 µM
TGI (SNB-75 CNS): 89 µM
TGI (CAKI-1 renal): > 100 µM
TGI (UACC-257 melanoma): > 100 µM
TGI (HCT-15 colon): > 100 µM
TGI (MDA-MB-231 breast): > 100 µM
TGI (RPMI-8226 leukemia): > 100 µM
TGI (OVCAR-8 ovarian): > 100 µM
TGI (TK-10 renal): 45.2 µM
TGI (NCI-H226 lung): > 100 µM
TGI (T-47D breast): > 100 µM
TGI (CCRF-CEM leukemia): > 100 µM
TGI (MDA-MB-435): > 100 µM
TGI (UO-31 renal): > 100 µM
TGI (ACHN renal): > 100 µM
TGI (SF-295 CNS): > 100 µM
TGI (NCI-H23 lung): > 100 µM
TGI (SN12C renal): > 100 µM
TGI (K-562 leukemia): > 100 µM

Oc1ccc(Cl)cc1N=Nc1c(O)ccc2ccccc12
TGI (HOP-92 NSCLC): > 100 µM
TGI (U251 CNS): > 100 µM
TGI (SW-620 colon): > 100 µM
TGI (IGROV1 ovarian): > 100 µM
TGI (HL-60(TB) leukemia): > 100 µM
TGI (MALME-3M melanoma): 80.3 µM
TGI (SR leukemia): > 100 µM
TGI (OVCAR-4 ovarian): > 100 µM
TGI (786-0 renal): > 100 µM
TGI (NCI/ADR-RES ovarian): > 100 µM
TGI (HOP-62 NSCLC): > 100 µM
TGI (PC-3 prostate): > 100 µM
TGI (HS 578T breast): > 100 µM
TGI (MOLT-4 leukemia): > 100 µM
TGI (SK-MEL-5 melanoma): > 100 µM
TGI (M14 melanoma): > 100 µM
TGI (RXF 393 renal): > 100 µM
TGI (OVCAR-3 ovarian): > 100 µM
TGI (NCI-H522 lung): > 100 µM
TGI (LOX IMVI melanoma): > 100 µM
TGI (EKVX NSCLC): > 100 µM
TGI (BT-549 breast): > 100 µM
TGI (SK-OV-3 ovarian): > 100 µM
TGI (OVCAR-5 ovarian): > 100 µM
TGI (MDA-N): > 100 µM
TGI (A549 NSCLC): > 100 µM
TGI (COLO 205 colon): > 100 µM
TGI (KM12 colon): > 100 µM
TGI (SF-268 CNS): > 100 µM
TGI (SK-MEL-28 melanoma): > 100 µM
TGI (SNB-19 CNS): > 100 µM
TGI (SK-MEL-2 melanoma): > 100 µM
TGI (UACC-62 melanoma): > 100 µM
TGI (HCT-116 colon): > 100 µM
TGI (HT29 colon): > 100 µM
TGI (SNB-75 CNS): > 100 µM
TGI (CAKI-1 renal): > 100 µM
TGI (UACC-257 melanoma): > 100 µM
TGI (HCT-15 colon): > 100 µM
TGI (MDA-MB-231 breast): > 100 µM
TGI (RPMI-8226 leukemia): > 100 µM
TGI (OVCAR-8 ovarian): > 100 µM
TGI (TK-10 renal): > 100 µM
TGI (NCI-H226 lung): > 100 µM
TGI (CCRF-CEM leukemia): > 100 µM
TGI (MDA-MB-435): > 100 µM
TGI (UO-31 renal): > 100 µM
TGI (ACHN renal): > 100 µM
TGI (SF-295 CNS): > 100 µM
TGI (NCI-H23 lung): > 100 µM
TGI (SN12C renal): > 100 µM
TGI (K-562 leukemia): > 100 µM

O=C(O)C(=Cc1ccc(-c2ccc([N+](=O)[O-])cc2)o1)C(=O)O
TGI (U251 CNS): > 100 µM
TGI (SW-620 colon): > 100 µM
TGI (IGROV1 ovarian): > 100 µM
TGI (MCF7 breast): > 100 µM
TGI (MALME-3M melanoma): > 100 µM
TGI (SR leukemia): > 100 µM
TGI (786-0 renal): > 100 µM
TGI (NCI/ADR-RES ovarian): > 100 µM
TGI (HOP-62 NSCLC): > 100 µM
TGI (PC-3 prostate): > 100 µM
TGI (HS 578T breast): > 100 µM
TGI (MOLT-4 leukemia): > 100 µM
TGI (SK-MEL-5 melanoma): > 100 µM
TGI (DU-145 prostate): > 100 µM
TGI (M14 melanoma): > 100 µM
TGI (RXF 393 renal): > 100 µM
TGI (OVCAR-3 ovarian): > 100 µM
TGI (A498 renal): > 100 µM
TGI (NCI-H460 lung): > 100 µM
TGI (NCI-H522 lung): > 100 µM
TGI (LOX IMVI melanoma): > 100 µM
TGI (EKVX NSCLC): > 100 µM
TGI (HCC-2998 colon): > 100 µM
TGI (BT-549 breast): > 100 µM
TGI (SK-OV-3 ovarian): > 100 µM
TGI (OVCAR-5 ovarian): > 100 µM
TGI (MDA-N): > 100 µM
TGI (A549 NSCLC): > 100 µM
TGI (COLO 205 colon): > 100 µM
TGI (KM12 colon): > 100 µM
TGI (SF-268 CNS): > 100 µM
TGI (SK-MEL-28 melanoma): > 100 µM
TGI (SNB-19 CNS): > 100 µM
TGI (SK-MEL-2 melanoma): > 100 µM
TGI (UACC-62 melanoma): > 100 µM
TGI (HCT-116 colon): > 100 µM
TGI (SF-539 CNS): > 100 µM
TGI (HT29 colon): > 100 µM
TGI (SNB-75 CNS): > 100 µM
TGI (CAKI-1 renal): > 100 µM
TGI (UACC-257 melanoma): > 100 µM
TGI (HCT-15 colon): > 100 µM
TGI (MDA-MB-231 breast): > 100 µM
TGI (RPMI-8226 leukemia): > 100 µM
TGI (OVCAR-8 ovarian): > 100 µM
TGI (TK-10 renal): > 100 µM
TGI (NCI-H226 lung): > 100 µM
TGI (CCRF-CEM leukemia): > 100 µM
TGI (MDA-MB-435): > 100 µM
TGI (UO-31 renal): > 100 µM
TGI (ACHN renal): > 100 µM
TGI (SF-295 CNS): > 100 µM
TGI (NCI-H23 lung): > 100 µM
TGI (SN12C renal): > 100 µM
TGI (K-562 leukemia): > 100 µM
